Activity calls are given as the source filed them. Cut-off read from the data, not from the text of the source: actives have a measured IC50 and inactives only a lower limit.

This assay has as its target T1, Apoptotic protease-activating factor 1 (Homo sapiens, UniProt O14727).
T1 sequence (O14727 whole entry): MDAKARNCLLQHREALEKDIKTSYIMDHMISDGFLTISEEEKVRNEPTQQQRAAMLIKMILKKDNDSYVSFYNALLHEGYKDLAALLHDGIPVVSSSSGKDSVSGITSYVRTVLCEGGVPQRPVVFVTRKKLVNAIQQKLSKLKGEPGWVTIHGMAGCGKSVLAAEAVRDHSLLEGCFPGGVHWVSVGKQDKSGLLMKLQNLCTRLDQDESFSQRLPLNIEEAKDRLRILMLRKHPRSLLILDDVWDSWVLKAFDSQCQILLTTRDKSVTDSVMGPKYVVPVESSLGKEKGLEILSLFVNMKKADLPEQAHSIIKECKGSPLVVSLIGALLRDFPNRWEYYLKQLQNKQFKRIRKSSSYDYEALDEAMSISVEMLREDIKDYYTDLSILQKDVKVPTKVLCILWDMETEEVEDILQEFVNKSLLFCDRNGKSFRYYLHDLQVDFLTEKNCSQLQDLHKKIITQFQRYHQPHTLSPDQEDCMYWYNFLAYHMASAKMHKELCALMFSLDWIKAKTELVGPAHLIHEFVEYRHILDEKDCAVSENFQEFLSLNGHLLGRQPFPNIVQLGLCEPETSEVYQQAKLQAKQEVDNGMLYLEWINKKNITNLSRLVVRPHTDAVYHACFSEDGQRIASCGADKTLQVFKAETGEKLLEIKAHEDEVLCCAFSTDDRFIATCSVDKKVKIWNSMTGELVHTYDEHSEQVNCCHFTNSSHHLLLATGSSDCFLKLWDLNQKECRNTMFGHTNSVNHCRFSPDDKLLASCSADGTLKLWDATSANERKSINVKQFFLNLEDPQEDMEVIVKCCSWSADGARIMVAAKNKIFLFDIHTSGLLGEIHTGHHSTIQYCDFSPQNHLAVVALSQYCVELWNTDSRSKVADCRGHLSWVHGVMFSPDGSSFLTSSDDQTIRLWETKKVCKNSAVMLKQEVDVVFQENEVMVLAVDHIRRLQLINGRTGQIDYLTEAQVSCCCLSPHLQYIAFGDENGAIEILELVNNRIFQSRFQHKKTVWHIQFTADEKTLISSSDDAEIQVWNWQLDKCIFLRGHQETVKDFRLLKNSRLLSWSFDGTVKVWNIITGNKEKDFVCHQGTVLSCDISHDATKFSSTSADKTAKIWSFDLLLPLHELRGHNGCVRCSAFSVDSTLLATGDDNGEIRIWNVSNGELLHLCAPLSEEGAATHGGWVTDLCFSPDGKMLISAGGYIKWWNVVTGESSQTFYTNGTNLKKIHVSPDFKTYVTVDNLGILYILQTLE
Format: functional.

Broadly, the IC50 is the concentration at which inhibition is half-maximal. As for `COC(=O)c1ccccc1NC1=C/C(=N\S(=O)(=O)c2ccc(C(=O)O)cc2)c2ccccc2C1=O`, the IC50 is 7.19 µM (active).

These data come from ChEMBL document CHEMBL1201862, “PubChem BioAssay data set” (2004).
